What was measured:
Assay in all cases: selective drug sensitivity score (sDSS, relative to normal bone marrow) (sDSS (score)); higher = more potent and effective on the cell line relative to normal bone marrow cells
Settings in all cases: 72 h
[1] = test system: JURKAT
[2] = test system: HPB-ALL
[3] = test system: 380
[4] = test system: ALL-SIL
[5] = test system: SUP-B15
[6] = test system: COG-LL-332h
[7] = test system: 697
[8] = test system: COG-LL-317
[9] = test system: COG-LL-402h
[10] = test system: KOPN-8
[11] = test system: KARPAS-45
[12] = test system: RCH-ACV
[13] = test system: COG-LL-355h
[14] = test system: TMD5
[15] = test system: PEER
[16] = test system: MHH-CALL-4
[17] = test system: KASUMI-9
[18] = test system: CCRF-HSB2
[19] = test system: TANOUE
[20] = test system: NALL-1
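Also: ALL cell lines in 384-well plates, five doses spanning 10,000-fold, each plate scaled between vehicle and 100 µmol/L benzalkonium chloride controls, sDSS an adapted area-under-curve metric.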

Row | SMILES | selective drug sensitivity score [1] | selective drug sensitivity score [2] | selective drug sensitivity score [3] | selective drug sensitivity score [4] | selective drug sensitivity score [5] | selective drug sensitivity score [6] | selective drug sensitivity score [7] | selective drug sensitivity score [8] | selective drug sensitivity score [9] | selective drug sensitivity score [10] | selective drug sensitivity score [11] | selective drug sensitivity score [12] | selective drug sensitivity score [13] | selective drug sensitivity score [14] | selective drug sensitivity score [15] | selective drug sensitivity score [16] | selective drug sensitivity score [17] | selective drug sensitivity score [18] | selective drug sensitivity score [19] | selective drug sensitivity score [20]
1 | CNS(=O)(=O)Nc1nccc(Cc2c(C)c3ccc(Oc4ncccn4)cc3oc2=O)c1F (top concentration 1000 nM) | 0.92 | -1.18 | -1.18 | 0.42 | 10.1 | -1.08 | 0.02 | -1.08 | -1.18 | 2.42 | -0.28 | 0.42 | 0.02 | -1.18 | 0.22 | 1.02 | 0.02 | -1.18 | -1.18 | 2.22
2 | C[C@H]1Oc2cc(cnc2N)-c2c(nn(C)c2C#N)CN(C)C(=O)c2ccc(F)cc21 (top concentration 1000 nM) | -0.72 | -0.72 | -0.72 | -0.32 | -0.72 | -0.72 | -0.72 | -0.72 | -0.72 | 11.3 | -0.72 | 3.38 | 2.18 | -0.62 | -0.72 | -0.72 | -0.72 | -0.72 | -0.72 | -0.72
3 | CCc1cncnc1N1CCN(Cc2nc3cc(C(F)(F)F)ccc3[nH]2)CC1 (top concentration 10000 nM) | 7.36 | 0.96 | -0.84 | 1.76 | 3.46 | 1.46 | 4.16 | 1.26 | -0.84 | 8.36 | 2.46 | 6.46 | -0.14 | -0.84 | 4.56 | 5.46 | 3.86 | 4.16 | 3.26 | 8.66
4 | CN(C)CC#Cc1ccc(OCCCc2sc(N3CCc4cccc(C(=O)Nc5nc6ccccc6s5)c4C3)nc2C(=O)O)c(F)c1 (top concentration 10000 nM) | 10.9 | 24.9 | 15.7 | 37.6 | 13.6 | 15.7 | -2.04 | 39.8 | 26.4 | 3.46 | 38.5 | -1.54 | 27.2 | -3.64 | 31.8 | 9.16 | -1.24 | 17.1 | -3.34 | 3.46
5 | O=C(NC[C@H](O)CN1CCc2ccccc2C1)c1cc(NC2COC2)ncn1 (top concentration 10000 nM) | -0.06 | 3.44 | -0.06 | -0.06 | 1.54 | 1.54 | 0.84 | 10.6 | 0.34 | -0.06 | 0.04 | 1.24 | -0.06 | -0.06 | -0.06 | -0.06 | -0.06 | 1.64 | -0.06 | -0.06
6 | O=C1Cc2cc(C(=O)NC3C[C@H]4CC[C@@H](C3)N4S(=O)(=O)CC3CCN(CCCC(F)(F)F)CC3)c(Cl)cc2N1 (stereo not given in full) (top concentration 10000 nM) | 0 | 0.5 | 0 | 0 | 0 | 0 | 0 | 0 | 0 | 0 | 0 | 0 | 0.9 | 2.6 | 0 | 0 | 0.6 | 0 | 0 | 0.6
7 | CC/C(=C(\c1ccc(O)cc1)c1ccc(OCCN(C)C)cc1)c1ccccc1 [4-hydroxytamoxifen] (top concentration 10000 nM) | 2.02 | 0.52 | -1.48 | 1.22 | 0.92 | 0.82 | 1.32 | 0.62 | -3.48 | 3.22 | 1.52 | 0.72 | 1.72 | -1.78 | 2.32 | 0.42 | 3.62 | 1.82 | -2.88 | -1.78
8 | COCC1(CO)C(=O)C2CCN1CC2 (stereo not given) [APR-246] (top concentration 10000 nM) | -1.16 | 2.14 | 4.54 | -1.16 | 0.44 | -0.56 | 0.24 | -1.16 | -1.16 | 0.54 | -1.16 | -1.16 | 2.44 | -1.16 | -1.16 | 0.64 | -0.66 | -1.16 | 4.54 | -1.16
9 | Cc1sc2c(c1C)C(c1ccc(Cl)cc1)=N[C@@H](CC(=O)Nc1ccc(OCCOCCOCCOCCNc3cccc4c3C(=O)N(C3CCC(=O)NC3=O)C4=O)cc1)c1nnc(C)n1-2 (stereo not given in full) [ARV-825] (top concentration 300 nM) | -13.2 | -10.9 | 2.04 | -6.46 | 6.14 | -1.46 | 3.14 | -0.26 | 3.74 | 4.14 | -8.06 | 4.44 | 10.2 | 0.14 | -0.46 | 7.54 | 6.64 | 1.14 | -17.1 | -12.1
10 | COc1cc(OC2CCN(C)CC2)ccc1Nc1ncc2c(n1)n(C1CCCC1)c(=O)n2C [AZ3146] (top concentration 10000 nM) | 0.24 | 3.14 | -2.86 | 2.14 | 1.34 | 1.34 | 1.04 | 0.74 | -0.56 | 4.54 | 0.94 | 1.24 | 2.94 | -4.06 | 2.54 | 0.64 | -0.36 | 1.84 | -4.16 | -2.16
11 | CN(C)CCCOc1ccc(-c2ccc3ncc4c(c3c2)n(C2CCOCC2)c(=O)n4C)cn1 [AZD0156] (top concentration 1000 nM) | -0.06 | 0.24 | 2.24 | 1.84 | 1.14 | 0.64 | 1.04 | -0.06 | 3.34 | 2.04 | 0.14 | 7.24 | 0.74 | -0.06 | -0.06 | 1.54 | 1.04 | 0.94 | -0.06 | 2.54
12 | N#Cc1ccc2[nH]c(O)c(-c3ccc(CN4CCOCC4)cn3)c2c1 [AZD-1080] (top concentration 10000 nM) | -0.02 | -0.02 | -0.02 | -0.02 | 5.08 | -0.02 | 4.38 | 3.38 | 2.08 | 4.28 | -0.02 | 3.98 | 3.98 | -0.02 | -0.02 | -0.02 | 4.08 | 1.08 | -0.02 | -0.02
13 | CN(C)C/C=C/C(=O)Nc1cc2c(Nc3ccc(F)c(Cl)c3)ncnc2cc1O[C@H]1CCOC1 [Afatinib] (top concentration 1000 nM) | 0.16 | -0.84 | -0.84 | -0.84 | -0.84 | -0.84 | -0.34 | -0.84 | 0.46 | -0.74 | 1.06 | 1.26 | 0.46 | 3.56 | 0.66 | -0.84 | 2.16 | 1.96 | -0.84 | -0.84
14 | O=C(Nc1ccc(OC(F)(F)Cl)cc1)c1cnc(N2CC[C@@H](O)C2)c(-c2cc[nH]n2)c1 [Asciminib] (top concentration 1000 nM) | -0.58 | 1.62 | 1.92 | 31.2 | 26.2 | 5.62 | -1.18 | -0.88 | -1.98 | 11.4 | -1.98 | -1.98 | 2.02 | 13.6 | 16.2 | 7.12 | -1.68 | -1.98 | 1.12 | 3.62
15 | CC[C@@H]1C(=O)N(C)c2cnc(Nc3ccc(C(=O)NC4CCN(C)CC4)cc3OC)nc2N1C1CCCC1 [BI-2536] (top concentration 1000 nM) | 19.2 | 18.2 | 18.3 | 21.5 | 22.9 | 17.4 | 17.4 | 21.2 | 17.2 | 17 | 21.3 | 15.5 | 4.84 | 10.4 | 20.8 | 6.94 | 20.3 | 20.1 | -8.46 | -8.46
16 | Cc1ccc(NC(=O)c2ccc(CN3CC[C@H](N(C)C)C3)c(C(F)(F)F)c2)cc1Nc1nccc(-c2cncnc2)n1 [Bafetinib] (top concentration 1000 nM) | 0 | 0 | 0 | 34 | 21.9 | 12.3 | 0 | 0 | 0.5 | 3.1 | 0 | 0.4 | 0.8 | 9.1 | 15.4 | 0 | 0 | 9.9 | 0 | 0
17 | CC[C@H](NC(=O)[C@H](C)NC)C(=O)N1C[C@@H](O)C[C@H]1Cc1c(-c2[nH]c3cc(F)ccc3c2C[C@@H]2C[C@H](O)CN2C(=O)[C@H](CC)NC(=O)[C@H](C)NC)[nH]c2cc(F)ccc12 [Birinapant] (top concentration 1000 nM) | -4.9 | -5.1 | -5.1 | 8.7 | -3.7 | 9.6 | -5.1 | -5 | -5.1 | -5.1 | -5.1 | 3.1 | 13.3 | -0.1 | -4.4 | 7.5 | -5.1 | 5.7 | -5.1 | 6.9

Source: the supplement of paper PMC8967900
